Tests used:
[1] = molecular target: Mu-type opioid receptor (Homo sapiens) (UniProt P35372); experiment: Antagonist activity at human cloned mu opioid receptor expressed in CHO cells assessed as inhibition of DAMGO-stimulated [35S]GTPgammaS binding; format: functional, cell-based
[2] = molecular target: Kappa-type opioid receptor (Homo sapiens) (UniProt P41145); experiment: Antagonist activity at human cloned kappa opioid receptor expressed in CHO cells assessed as inhibition of U69593-stimulated [35S]GTPgammaS binding; format: functional, cell-based
Sequence of Kappa-type opioid receptor (Homo sapiens) (P41145 whole entry): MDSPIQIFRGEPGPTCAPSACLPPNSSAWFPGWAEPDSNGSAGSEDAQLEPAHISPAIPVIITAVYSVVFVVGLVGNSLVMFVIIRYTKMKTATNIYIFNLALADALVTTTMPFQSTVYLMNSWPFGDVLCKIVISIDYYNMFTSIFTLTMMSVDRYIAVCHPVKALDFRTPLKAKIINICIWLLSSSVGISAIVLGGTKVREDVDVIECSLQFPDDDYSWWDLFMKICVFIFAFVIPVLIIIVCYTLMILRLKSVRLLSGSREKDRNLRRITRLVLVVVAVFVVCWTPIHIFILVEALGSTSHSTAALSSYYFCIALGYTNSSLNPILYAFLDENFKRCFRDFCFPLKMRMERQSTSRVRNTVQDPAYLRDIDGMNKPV

[3] = molecular target: Delta-type opioid receptor (Homo sapiens) (UniProt P41143); experiment: Antagonist activity at human cloned delta opioid receptor expressed in CHO cells assessed as inhibition of DPDPE-stimulated [35S]GTPgammaS binding; format: functional, cell-based
Sequence of Delta-type opioid receptor (Homo sapiens) (P41143 whole entry): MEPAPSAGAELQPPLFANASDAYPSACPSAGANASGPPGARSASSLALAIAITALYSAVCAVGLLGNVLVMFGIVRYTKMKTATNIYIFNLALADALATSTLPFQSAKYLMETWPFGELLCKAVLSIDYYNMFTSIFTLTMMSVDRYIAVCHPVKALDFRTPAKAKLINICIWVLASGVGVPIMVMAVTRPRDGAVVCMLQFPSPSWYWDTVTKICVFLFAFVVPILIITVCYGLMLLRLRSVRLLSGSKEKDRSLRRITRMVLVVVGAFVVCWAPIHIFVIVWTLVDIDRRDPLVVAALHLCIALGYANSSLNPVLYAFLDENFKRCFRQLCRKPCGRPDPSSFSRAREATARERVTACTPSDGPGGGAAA

Homo sapiens [4] = species on record: Homo sapiens; experiment: Ratio of Ke for human cloned mu opioid receptor to Ke for human cloned kappa opioid receptor
Homo sapiens [5] = species on record: Homo sapiens; experiment: Ratio of Ke for human cloned delta opioid receptor to Ke for human cloned kappa opioid receptor
[6] = molecular target: Mu-type opioid receptor (Homo sapiens) (UniProt P35372); experiment: Ratio of JDTic Ke to compound Ke for human cloned mu opioid receptor expressed in CHO cells; format: cell-based
[7] = molecular target: Kappa-type opioid receptor (Homo sapiens) (UniProt P41145); experiment: Ratio of compound Ke to JDTic Ke for human cloned kappa opioid receptor expressed in CHO cells; format: cell-based

Sequence of Mu-type opioid receptor (Homo sapiens) (P35372 whole entry): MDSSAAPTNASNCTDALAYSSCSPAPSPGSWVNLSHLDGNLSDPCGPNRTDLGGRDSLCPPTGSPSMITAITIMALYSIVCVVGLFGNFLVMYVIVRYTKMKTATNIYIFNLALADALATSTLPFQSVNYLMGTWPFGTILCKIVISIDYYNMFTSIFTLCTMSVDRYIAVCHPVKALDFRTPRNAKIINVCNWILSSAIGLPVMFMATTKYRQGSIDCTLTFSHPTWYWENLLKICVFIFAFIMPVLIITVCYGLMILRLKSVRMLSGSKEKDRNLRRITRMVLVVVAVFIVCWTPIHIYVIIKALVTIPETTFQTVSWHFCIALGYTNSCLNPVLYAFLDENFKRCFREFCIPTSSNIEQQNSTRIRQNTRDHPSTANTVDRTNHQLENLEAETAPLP

Compound	Ke [1]	Ke [2]	Ke [3]	Ratio Ke (Homo sapiens [4])	Ratio Ke (Homo sapiens [5])	Ratio Ke [6]	Ratio Ke [7]
CC[C@H](C)[C@@H](CN1CC[C@@](C)(c2cccc(OC)c2)[C@@H](C)C1)NC(=O)[C@H]1Cc2ccc(O)cc2CN1	5.1 nM	0.96 nM					
COc1cccc([C@]2(C)CCN(C[C@@H](NC(=O)[C@@]3(C)Cc4ccc(OC)cc4CN3)C(C)C)C[C@@H]2C)c1		15.2 nM	> 10000 nM				
CC(C)[C@@H](CN1CC[C@@](C)(c2cccc(O)c2)[C@@H](C)C1)NC(=O)[C@H]1Cc2ccc(O)cc2CN1				1260	3830		
CC[C@H](C)[C@@H](CN1CC[C@@](C)(c2cccc(O)c2)[C@@H](C)C1)NC(=O)[C@H]1Cc2ccc(O)cc2CN1C	7.2 nM	0.11 nM	132 nM	66	1200		
CC(C)[C@@H](CN1CC[C@@](C)(c2cccc(O)c2)[C@@H](C)C1)NC(=O)[C@@]1(C)Cc2ccc(O)cc2CN1	3.6 nM	0.03 nM	854 nM	120	28500		
CC[C@H](C)[C@@H](CN1CC[C@@](C)(c2cccc(O)c2)[C@@H](C)C1)NC(=O)[C@H]1Cc2ccc(O)cc2CN1				100	800	8	
COc1cccc([C@]2(C)CCN(C[C@@H](NC(=O)[C@H]3Cc4ccc(O)cc4CN3)C(C)C)C[C@@H]2C)c1	24 nM	0.037 nM	21.2 nM	649	573		2
CC[C@H](C)[C@@H](CN1CC[C@@](C)(c2cccc(O)c2)[C@@H](C)C1)NC(=O)[C@@]1(C)Cc2ccc(O)cc2CN1	8.7 nM	0.11 nM					
COc1cccc([C@]2(C)CCN(C[C@@H](NC(=O)[C@H]3Cc4ccc(O)cc4CN3C)C(C)C)C[C@@H]2C)c1	880 nM	4.3 nM	2300 nM	204	535		
COc1ccc2c(c1)CN[C@@H](C(=O)N[C@H](CN1CC[C@@](C)(c3cccc(O)c3)[C@@H](C)C1)C(C)C)C2				857	1970		3
COc1cccc([C@]2(C)CCN(C[C@@H](NC(=O)[C@@]3(C)Cc4ccc(O)cc4CN3)C(C)C)C[C@@H]2C)c1		0.26 nM	2200 nM				
COc1ccc2c(c1)CN[C@@](C)(C(=O)N[C@H](CN1CC[C@@](C)(c3cccc(O)c3)[C@@H](C)C1)C(C)C)C2	3.8 nM	0.93 nM	36.8 nM	4	40		
COc1ccc2c(c1)CN(C)[C@@](C)(C(=O)N[C@H](CN1CC[C@@](C)(c3cccc(O)c3)[C@@H](C)C1)C(C)C)C2	7 nM	2.2 nM					
CC[C@H](C)[C@@H](CN1CC[C@@](C)(c2cccc(O)c2)[C@@H](C)C1)NC(=O)[C@@]1(C)Cc2ccc(OC)cc2CN1	17.5 nM	3.5 nM	18.7 nM	5	5		
CC(C)[C@@H](CN1CC[C@@](C)(c2cccc(O)c2)[C@@H](C)C1)NC(=O)[C@H]1Cc2ccc(O)cc2CN1C	210 nM	0.16 nM	491 nM	1310	3070		
CC[C@H](C)[C@@H](CN1CC[C@@](C)(c2cccc(OC)c2)[C@@H](C)C1)NC(=O)[C@H]1Cc2ccc(O)cc2CN1C	360 nM	2.03 nM	> 10000 nM	180			
CC[C@H](C)[C@@H](CN1CC[C@@](C)(c2cccc(OC)c2)[C@@H](C)C1)NC(=O)[C@@]1(C)Cc2ccc(O)cc2CN1		0.52 nM	2100 nM				
